Experimental data from ChEMBL document CHEMBL1143759, “Losartan and its interaction with copper(II): biological effects” (2007).

Tests used:
[1] = Inhibition of cell proliferation of rat UMR106 cells at 500 uM; type: functional; set-up: scale not given: the % may be the effect or the level left
[2] = Inhibition of cell proliferation of mouse MC3T3E1 cells at 500 uM; type: functional, MC3T3-E1; set-up: scale not given: the % may be the effect or the level left

With `CCCCc1nc(Cl)c(CO)n1Cc1ccc(-c2ccccc2-c2nnn[n-]2)cc1.[K+]` [LOSARTAN POTASSIUM] the Activity [1] was 10% and the Activity [2] was 10%.
